# Experimental data published in patent US7122359B2, “Active-site engineering of nucleotidylyltransferases and general enzymatic methods for the synthesis of natural and “unnatural” UDP- and TDP-nucleotide sugars” (priority 2000, dated 2006).
# Entries after “also recorded” stand apart in the source; their conditions may differ.
# Target: T1, Salmonella enterica LT2 α-D-glucopyranosyl phosphate thymidylyltransferase (Ep) (Salmonella typhimurium, UniProt P26393)
# T1 construct: made in house; host or cells: E. coli (E. coli-prfbA-C)
# Assay: Ep-catalyzed conversion of aminodeoxy/acetamidodeoxy sugar phosphates with inorganic pyrophosphatase, HPLC (FIG. 4)
# Assay type: biochemical
# Conditions: 2.5 mM NTP, 5.0 mM sugar phosphate, 10 U inorganic pyrophosphatase, 30 min, 37° C.
# Method: To evaluate the synthetic utility of thymidylyl-transferase, purified Ep, α-D-glucopyranosyl phosphate, Mg^+2, NTP and inorganic pyrophosphatase were incubated at 37° C. for 30 min and the extent of product formation determined by HPLC. The inorganic pyrophosphatase was included to drive the reaction forward. A reaction containing 2.5 mM NTP, 5.0 mM sugar phosphate, 5.5 mM MgCl2 and 10 U inorganic pyrophosphatase in a total volume of 50 μL 50 mM potassium phosphate buffer, pH 7.5 at 37° C. was initiated by the addition of 3.52 U Ep (1 U=the amount of protein needed to produce […] TDP-D-glucose min^−1). The reaction was incubated with slow agitation for 30 min at 37° C., quenched with MeOH (50 μL), centrifuged (5 min, 14,000×g) and the supernatant was stored at −20° C. until analysis by HPLC. Samples (30 μL) were resolved on a Sphereclone 5u SAX column (150×4.6 mm) fitted with a SecurityGuard ™ cartridge (Phenomenex; Torrance, Calif.) using a linear gradient (50–200 mM potassium phosphate buffer, pH 5.0, 1.5 mL min^−1, A275 nm).
# The results of these assays are illustrated in FIG. 4. For each assay, confirmation of product formation was based upon high resolution mass spectroscopy of HPLC-isolated products and, also in some cases, HPLC co-elution with commercially available standards.
# A reaction containing 2.5 mM NTP, 5.0 mM sugar phosphate, 5.5 mM MgCl2 and 10 U inorganic pyrophosphatase in a total volume of 50 μL 50 mM potassium phosphate buffer, pH 7.5 at 37° C. was initiated by the addition of 3.52 U Ep (1 U=the amount of protein needed to produce 1 μmol TDP-α-D-glucose min^−1) The reaction was incubated with slow agitation for 30 min at 37° C., quenched with MeOH (50 μL), centrifuged (5 min, 14,000×g) and the supernatant was stored at −20° C. until analysis by HPLC. Samples (30 μL) were resolved on a Sphereclone 5u SAX column (250×4.6 mm) fitted with a guard column (30×4.6 mm) using a linear gradient (50–200 mM potassium phosphate buffer, pH 5.0, 1.5 mL min^−1, A275 nm).
Molecule,product formation with dTTP,product formation with UTP
"N[C@H]1[C@@H](OP(=O)(O)O)O[C@H](CO)[C@@H](O)[C@@H]1O [compound 107, 2-amino-2-deoxy-α-D-glucopyranosyl phosphate, reference compound]",little or no effect,
"CC(=O)N[C@@H]1[C@@H](O)[C@@H](OP(=O)([O-])[O-])O[C@H](CO)[C@H]1O.[Na+].[Na+] [compound 97, Disodium-(3-acetamido-3-deoxy-α-D-glucopyranosyl) Phosphate]",well-tolerated,adverse UTP-dependent effect upon yields
"NC[C@H]1O[C@H](OP(=O)([O-])[O-])[C@H](O)[C@@H](O)[C@@H]1O.[Na+].[Na+] [compound 85, Disodium-(6-amino-6-deoxy-α-D-glucopyranosyl) Phosphate]",little or no effect,
"C[C@H]1O[C@H](OP(=O)([O-])[O-])[C@H](O)[C@@H](O)[C@@H]1N.[Na+].[Na+] [compound 102, Disodium-(4-amino-4,6-dideoxy-α-D-glucopyranosyl) Phosphate]",does not effect,greatly diminishes
"CC(=O)N[C@H]1[C@H](O)[C@@H](O)[C@@H](OP(=O)([O-])[O-])O[C@@H]1CO.[Na+].[Na+] [compound 92, Disodium-(4-acetamido-4-deoxy-α-D-glucopyranosyl) Phosphate]",less activity,
"N[C@@H]1[C@@H](O)[C@@H](OP(=O)([O-])[O-])O[C@H](CO)[C@H]1O.[Na+].[Na+] [compound 96, Disodium (3-amino-3-deoxy-α-D-glucopyranosyl) Phosphate]",little or no effect,
"N[C@H]1[C@H](O)[C@@H](O)[C@@H](OP(=O)([O-])[O-])O[C@@H]1CO.[Na+].[Na+] [compound 91, Disodium-(4-amino-4-deoxy-α-D-glucopyranosyl) Phosphate]",little or no effect,

# Same assay, conditions: 2.5 mM NTP, 5.0 mM sugar phosphate, 10 U inorganic pyrophosphatase, 30 min, 37° C.; Phosphate
row,Molecule,product formation with UTP
1,"NC[C@H]1O[C@H](OP(=O)([O-])[O-])[C@H](O)[C@@H](O)[C@@H]1O.[Na+].[Na+] [compound 85, Disodium-(6-amino-6-deoxy-α-D-glucopyranosyl) Phosphate]",exception; also recorded: adverse UTP-dependent effect upon yields

# Target: T1, Salmonella enterica LT2 α-D-glucopyranosyl phosphate thymidylyltransferase (Ep)
# Assay: Ep-catalyzed conversion of α-D-hexopyranosyl phosphates and NTP to NDP-sugars, HPLC (FIG. 2)
# Assay type: biochemical
# Conditions: 5 mM NTP, 10 mM sugar phosphate, 30 min, 37° C.
# Text: FIG. 2. E^p-Catalyzed Conversion of Substrates wherein superscript indicators (a)–(h) are as follows: (a) Percent conversion=[Ap/(AP+AT)]×100, where AP is the NDP-sugar product peak integration and AT represents the NTP peak integration. HRMS for all observed products reported in the supporting information. (b) Standard retention times: TDP, […]; TTP, 7.2 mm; UDP, 4.0 mm; UTP, 6.1 mm. (c) Commercially available. (d) Coelutes with commercially available standard. […] (f) Adjusted for the 2:1 α/β-28. (g) In contrast to previously published studies (See Lindquist, L; Kaiser, R.; Reeves, P. R.; Lindberg, A. A., Eur J. Biochem, 1993, 211, 763–770). (h) No products observed.
# To evaluate the synthetic utility of purified thymidylyltransferase, Ep, α-D-hexopyranosyl phosphate, Mg^+2 and NTP were incubated at about 37° C. for about 30 min and the extent of product formation determined by HPLC. The results of these assays are illustrated in FIG. 2. Confirmation of product formation was based upon HPLC co-elution with commercially available standards and/or HPLC isolation and high resolution mass spectroscopy of the product. […] A reaction containing 5 mM NTP, 10 mM sugar phosphate and 5.5 mM MgCl2 in a total volume of 50 μL 50 mM potassium phosphate buffer, pH 7.5 at 37° C. was initiated by the addition of 3.52 U Ep (1 U=the amount of protein needed to produce 1 μmol TDP-D-glucose min^−1). The reaction was incubated with slow agitation for 30 min at 37° C., quenched with MeOH (50 μL), centrifuged (5 min, 14,000×g) and the supernatant was stored at −20° C. until analysis by HPLC. Samples (20 μL) were resolved on a Sphereclone 5 u SAX column (250×4.6 mm) fitted with a guard column (30×4.6 mm) using a linear gradient (20–60 mM potassium phosphate buffer, pH 5.0, 1.5 mL min^−1, A275 nm).
row,Molecule,activity as Ep substrate with TTP
1,"O=P([O-])([O-])O[C@@H]1C[C@@H](O)[C@H](O)[C@@H](CO)O1.[Na+].[Na+] [compound 43, Disodium 2-deoxy-α-D-glucopyranosyl Phosphate]",prefers
2,"Ethyl 2,3,4,6-tetra-O-benzyl-1-thio-β-D-gulopyranoside [compound 31]",less activity
3,"C[C@H]1O[C@H](OP(=O)([O-])[O-])[C@H](O)[C@@H](O)[C@@H]1O.[Na+].[Na+] [compound 12, Disodium 6-deoxy-α-D-glucopyranosyl Phosphate]",prefers
4,"O=P(O)(O)O[C@H]1O[C@H](CO)[C@H](O)[C@H](O)[C@H]1O [compound 57, α-D-galactopyranosyl phosphate, reference compound]",prefers
5,"O=P([O-])([O-])O[C@H]1O[C@H](CO)C[C@H](O)[C@H]1O.[Na+].[Na+] [compound 20, Disodium 4-deoxy-α-D-glucopyranosyl Phosphate]",prefers
6,"O=P([O-])([O-])O[C@H]1O[C@H](CO)[C@@H](O)[C@@H](O)[C@@H]1O.[Na+].[Na+] [compound 47, Disodium α-D-altropyranosyl Phosphate]",less activity
7,"O=P([O-])([O-])O[C@H]1O[C@H](CO)[C@H](O)[C@H](O)[C@@H]1O.[Na+].[Na+] [compound 55, Disodium α-D-talopyranosyl Phosphate]",less activity
8,"O=P([O-])([O-])O[C@H]1O[C@H](CO)[C@@H](O)C[C@H]1O.[Na+].[Na+] [compound 28, Disodium 3-deoxy-α-D-glucopyranosyl Phosphate]",prefers
9,"O=P([O-])([O-])O[C@H]1O[C@H](CO)[C@@H](O)[C@@H](O)[C@H]1O.[Na+].[Na+] [compound 38, Disodium α-D-allopyranosyl Phosphate]",less activity
10,"O=P(O)(O)O[C@H]1O[C@H](CO)[C@@H](O)[C@H](O)[C@@H]1O [compound 56, α-D-mannopyranosyl phosphate, reference compound]",prefers
11,"O=P([O-])([O-])O[C@H]1O[C@H](CO)[C@H](O)[C@@H](O)[C@@H]1O.[Na+].[Na+] [compound 51, Disodium α-D-idopyranosyl Phosphate]",less activity

# Same assay, conditions: FIG. 2 footnote (e), TTP reaction
row,Molecule,"Product hydrolysis observed, TDP"
1,"O=P([O-])([O-])O[C@@H]1C[C@@H](O)[C@H](O)[C@@H](CO)O1.[Na+].[Na+] [compound 43, Disodium 2-deoxy-α-D-glucopyranosyl Phosphate]",7.6%

# Same assay, conditions: FIG. 2 footnote (e), UTP reaction
row,Molecule,"Product hydrolysis observed, UDP"
1,"O=P([O-])([O-])O[C@@H]1C[C@@H](O)[C@H](O)[C@@H](CO)O1.[Na+].[Na+] [compound 43, Disodium 2-deoxy-α-D-glucopyranosyl Phosphate]",10.2%

# Same assay, conditions: NTP substrate specificity
row,Molecule,utilization as NTP substrate by Ep
1,"O=c1ccn([C@@H]2O[C@H](COP(=O)(O)OP(=O)(O)OP(=O)(O)O)[C@@H](O)[C@H]2O)c(=O)[nH]1 [UTP, reference compound]",utilizes
2,"Nc1ccn([C@@H]2O[C@H](COP(=O)(O)OP(=O)(O)OP(=O)(O)O)[C@@H](O)[C@H]2O)c(=O)n1 [CTP, reference compound]",not and not accepted

# Target: T2, wild-type Ep (Salmonella typhimurium, UniProt P26393)
# T2 construct: made in house; host or cells: E. coli (E. coli-prfbA-C)
# Assay: Conversion of sugar phosphates by wild-type enzyme (FIG. 11)
# Assay type: biochemical, Salmonella enterica LT2
# Conditions: not given
# Method: FIG. 11. Percent conversion of sugar phosphates according to the present invention by wild-type and mutant enzymes. The alterations from native substrate (Glc-1-P,1) are highlighted in red. For the mutant pool, mutants Asp41Asn, Glu62Asp, Thr201A and Trp224His were pooled, concentrated and an aliquote constituting 60 μg of each mutant (corresponding to 3.5U Ep) was utilized for the assay.
# Percent conversion was determined as described in Jiang, J., Biggins, J. B. & Thorson, J. S. A General Enzymatic Method for the Synthesis of Natural and “Unnatural” UDP- and TDP-Nucleotide Sugars. J. Am. Chem. Soc. 122, 6803–6804 (2000).
# Assays for product formation and steady state kinetics were accomplished using conditions similar to those described. in Jiang, J., Biggins, J. B. & Thorson, J. S. A General Enzymatic Method for the Synthesis of Natural and “Unnatural” UDP- and TDP-Nucleotide Sugars. J. Am. Chem. Soc. 122, 6803-6804 (2000). For the mutant pool assays, an aliquot which contained an eqimolar ratio of each mutant (60 μg) was utilized.
row,Molecule,acceptance / conversion by wild-type Ep
1,"O=P([O-])([O-])O[C@H]1O[C@H](CO)[C@@H](O)[C@@H](O)[C@H]1O.[Na+].[Na+] [compound 38, Disodium α-D-allopyranosyl Phosphate]",poor conversion
